Test system: mRNA expression in peripheral blood of individuals with DMD
Experiment: Whole-blood gene expression microarray: DMD administered deflazacort vs DMD administered prednisone
Type: in vivo, human
Conditions: for p-value / p-value (t-test, deflazacort vs. prednisone) / p-value (t-test, deflazacort vs prednisone): deflazacort vs. prednisone
Protocol: Fifteen ml of blood was collected from each individual into 6 PAXgene® Vacutainer® tubes (PreAnalytiX, Germany) by antecubital fossa venipuncture. PAXgene® tubes contain a proprietary reagent that immediately stabilizes RNA, thus reducing RNA degradation and minimizing gene expression changes following phlebotomy. The tubes were then inverted 20 times, then remained undisturbed for 2 h at room temperature (about 19° C. to about 22° C.), and then stored at -70° C. until processed. Total RNA was isolated using the Paxgene® blood RNA kit (PreAnalytiX, Germany) according to the manufacturers instructions. The RNA isolated is from all cells in whole blood. Typical yields of total RNA isolated from about 7.5 ml of human whole blood were between 10 μg RNA and 40 μg RNA. RNA quality and purity was analyzed by spectrophotometry using the Nanodrop ND-1000, and RNA integrity was analyzed using the Agilent 2100 Bioanalyzer. […] Sample labeling, hybridization to chips, and image scanning were performed using standard Affymetrix protocols. For each whole blood sample from control individuals and individuals with DMD, total RNA was labeled using the One-Cycle Target Labeling protocol and hybridized to the arrays. […] Double-stranded cDNA synthesis, biotin-labeled cRNA synthesis, and cRNA fragmentation were performed according to the Affymetrix GeneChip Eukaryotic Expression Analysis protocol. The labeled, fragmented cRNA (15 μg) was hybridized at 45° C. overnight. After hybridization, the array was washed and stained. The arrays were scanned with an argon-ion laser at λ=570 nm, with a resolution of 3 μm/pixel (Affymetrix, Inc.). After scanning the array, the raw probe level values for each probe were saved in Affymetrix.cel files. […] Statistical analyses, including t-test analyses, unsupervised hierarchical clustering, and principal component analyses were conducted using Genespring 7.2 software ([…]® 7, Silicon Genetics, Redwood City Calif.). […] Corrections for multiple comparisons used a Benjamini-Hochberg False Discovery Rate (FDR) of 0.05, disclosed in Tang et al., J Cereb Blood Flow Metab 26 (2006) 1089, which is expressly incorporated by reference herein in its entirety. […] Sample processing and array hybridization, probe-level data analysis, and statistical analysis were identical to Example 1.

For `CC(=O)OCC(=O)[C@@]12N=C(C)O[C@@H]1C[C@H]1[C@@H]3CCC4=CC(=O)C=C[C@]4(C)[C@H]3[C@@H](O)C[C@@]12C` [deflazacort], which “expression of retinoic acid receptor α (RARa)” value (deflazacort compared to prednisone, blood) is on record?
The value was “significantly up-regulated”.

What about the p-value (AA100891, Nucleic Acid No. 2100) of the same compound?
The p-value was 0.0498.

And the p-value (AA534416, Nucleic Acid No. 2105)?
The p-value was 0.0123.

And the “p-value (t-test, deflazacort vs. prednisone)” value (AA679303, Nucleic Acid No. 2067)?
Its value is 0.0185.

And the p-value (AA702409, Nucleic Acid No. 2116)?
Its p-value is 0.0453.

And the “p-value (t-test, deflazacort vs. prednisone)” value (AA789296, Nucleic Acid No. 2010)?
Its value is 0.0291.

And the “p-value (t-test, deflazacort vs. prednisone)” value (AA830854, Nucleic Acid No. 1325)?
The value was 0.0452.

What about the “p-value (t-test, deflazacort vs prednisone)” value (AB023216, Nucleic Acid No. 2081) of the same compound?
The value was 0.00521.

And the “p-value (t-test, deflazacort vs prednisone)” value (AB033106, Nucleic Acid No. 2083)?
Its value is 0.0446.

And the p-value (AF005774, Nucleic Acid No. 1945)?
The p-value was 0.0104.

And the p-value (AF009616, Nucleic Acid No. 1950)?
Its p-value is 0.0293.

And the p-value (AF009619, Nucleic Acid No. 1943)?
The p-value was 0.0064.

And the p-value (AF015451, Nucleic Acid No. 1946)?
The p-value was 0.0107.

And the p-value (AF041459, Nucleic Acid No. 1944)?
The p-value was 0.00822.

What about the p-value (AF041461, Nucleic Acid No. 1947) of the same compound?
The p-value was 0.013.

And the p-value (AF075067, Nucleic Acid No. 2112)?
Its p-value is 0.0376.

And the p-value (AF083208, Nucleic Acid No. 1892)?
The p-value was 0.00348.

And the “p-value (t-test, deflazacort vs prednisone)” value (AF098114, Nucleic Acid No. 2069)?
The value was 0.0202.

And the p-value (AF147300, Nucleic Acid No. 1995)?
The p-value was 0.0271.

What about the “p-value (t-test, deflazacort vs prednisone)” value (AF207547, Nucleic Acid No. 2088) of the same compound?
The value was 0.00744.

And the p-value (AF285167, Nucleic Acid No. 1894)?
The p-value was 0.0117.

And the p-value (AF313468, Nucleic Acid No. 1956)?
The p-value was 0.0435.

What about the p-value (AF400600, Nucleic Acid No. 1955) of the same compound?
The p-value was 0.0263.

And the p-value (AF400602, Nucleic Acid No. 1954)?
Its p-value is 0.0148.

What about the “p-value (t-test, deflazacort vs prednisone)” value (AF499918, Nucleic Acid No. 2091) of the same compound?
Its value is 0.0369.

And the “p-value (t-test, deflazacort vs. prednisone)” value (AI017983, Nucleic Acid No. 1338)?
Its value is 0.0323.

What about the “p-value (t-test, deflazacort vs. prednisone)” value (AI056689, Nucleic Acid No. 2031) of the same compound?
Its value is 0.043.

What about the “p-value (t-test, deflazacort vs prednisone)” value (AI080505, Nucleic Acid No. 2099) of the same compound?
Its value is 0.0412.

And the p-value (AI091372, Nucleic Acid No. 1918)?
The p-value was 0.00592.

And the p-value (AI093231, Nucleic Acid No. 1906)?
The p-value was 0.0085.

What about the “p-value (t-test, deflazacort vs. prednisone)” value (AI250910, Nucleic Acid No. 2014) of the same compound?
Its value is 0.0029.

And the p-value (AI342146, Nucleic Acid No. 1905)?
Its p-value is 0.048.

What about the “p-value (t-test, deflazacort vs. prednisone)” value (AI393727, Nucleic Acid No. 2034) of the same compound?
Its value is 0.0345.

And the p-value (AI436803, Nucleic Acid No. 1916)?
Its p-value is 0.00828.

And the “p-value (t-test, deflazacort vs prednisone)” value (AI535735, Nucleic Acid No. 2089)?
Its value is 0.0426.

What about the “p-value (t-test, deflazacort vs. prednisone)” value (AI608725, Nucleic Acid No. 2053) of the same compound?
Its value is 6.16E−05.

What about the p-value (AI651726, Nucleic Acid No. 2119) of the same compound?
Its p-value is 0.0107.

What about the p-value (AI670862, Nucleic Acid No. 2017) of the same compound?
Its p-value is 0.0109.

What about the “p-value (t-test, deflazacort vs. prednisone)” value (AI719730, Nucleic Acid No. 2039) of the same compound?
Its value is 0.00281.

What about the p-value (AI762695, Nucleic Acid No. 1996) of the same compound?
The p-value was 0.032.

What about the p-value (AI768497, Nucleic Acid No. 1910) of the same compound?
Its p-value is 0.0137.

What about the “p-value (t-test, deflazacort vs prednisone)” value (AI814925, Nucleic Acid No. 2072) of the same compound?
Its value is 0.0422.

And the “p-value (t-test, deflazacort vs prednisone)” value (AI830331, Nucleic Acid No. 2075)?
Its value is 0.0149.

What about the “p-value (t-test, deflazacort vs. prednisone)” value (AI830490, Nucleic Acid No. 2028) of the same compound?
The value was 0.0146.

And the p-value (AI860150, Nucleic Acid No. 2018)?
The p-value was 0.026.

What about the p-value (AI862537, Nucleic Acid No. 2118) of the same compound?
Its p-value is 0.0333.

What about the “p-value (t-test, deflazacort vs. prednisone)” value (AI868267, Nucleic Acid No. 1444) of the same compound?
Its value is 0.0285.

What about the “p-value (t-test, deflazacort vs. prednisone)” value (AI906424, Nucleic Acid No. 2044) of the same compound?
The value was 0.0287.

What about the “p-value (t-test, deflazacort vs. prednisone)” value (AI926544, Nucleic Acid No. 2054) of the same compound?
The value was 0.0136.

What about the p-value (AI985590, Nucleic Acid No. 1901) of the same compound?
The p-value was 0.0389.

What about the p-value (AJ422148, Nucleic Acid No. 2104) of the same compound?
The p-value was 0.026.

And the p-value (AK000119, Nucleic Acid No. 2121)?
Its p-value is 0.0375.

And the “p-value (t-test, deflazacort vs. prednisone)” value (AK023348, Nucleic Acid No. 2037)?
The value was 0.0274.

What about the p-value (AK024677, Nucleic Acid No. 1915) of the same compound?
Its p-value is 0.00386.

What about the “p-value (t-test, deflazacort vs. prednisone)” value (AK024911, Nucleic Acid No. 2045) of the same compound?
The value was 0.0429.

And the p-value (AK025217, Nucleic Acid No. 1997)?
The p-value was 0.0404.

What about the “p-value (t-test, deflazacort vs. prednisone)” value (AK074686, Nucleic Acid No. 2042) of the same compound?
Its value is 0.0406.

And the p-value (AK090660, Nucleic Acid No. 2080)?
Its p-value is 0.0288.

And the “p-value (t-test, deflazacort vs. prednisone)” value (AK092709, Nucleic Acid No. 2013)?
Its value is 0.0392.

What about the p-value (AL021977, Nucleic Acid No. 2110) of the same compound?
Its p-value is 0.0121.

And the p-value (AL049250, Nucleic Acid No. 2101)?
Its p-value is 0.0486.

And the “p-value (t-test, deflazacort vs. prednisone)” value (AL049273, Nucleic Acid No. 1402)?
Its value is 0.0448.

And the “p-value (t-test, deflazacort vs prednisone)” value (AL137645, Nucleic Acid No. 906)?
Its value is 0.0416.

What about the “p-value (t-test, deflazacort vs. prednisone)” value (AL832727, Nucleic Acid No. 2022) of the same compound?
Its value is 0.0334.

What about the p-value (AL833448, Nucleic Acid No. 2084) of the same compound?
Its p-value is 0.0326.

And the p-value (AU145206, Nucleic Acid No. 1909)?
Its p-value is 0.046.

What about the p-value (AU158358, Nucleic Acid No. 1897) of the same compound?
The p-value was 0.0325.
